Method: [drawing 8] was dissolved in alloocimene.
Examples 1 and 2 were repeated except that dodecane was used as a solvent in place of alloocimene or farnesenes.
[drawing 9] is dissolved in mixed isomers of farnesene.
[drawing 10] is dissolved in mixed isomers of farnesenes.
[drawing 11] is dissolved in mixed isomers of farnesenes.
[drawing 12] is dissolved in alloocimene.
[drawing 13] is dissolved in mixed isomers of farnesene.

solubility (in words) | Substance
high | tris(N,N′-diisopropylformamidinato)lanthanum(III)
high | tris(N,N′-diisopropylacetamidinato)yttrium(III)
high | copper(I) (N,N′-di-sec-butylacetamidinate)
high | bis(N,N′-diisopropylpentamidinato)manganese(II)
high | bis(N,N′-diisopropylacetamidinato)cobalt(II)

Reference: patent US9790378B2, “Vapor source using solutions of precursors in terpenes” (President and Fellows of Harvard College, priority 2010, dated 2017)
